The source of these data is patent US20070078170A1, “Process for the preparation of pioglitazone” (priority 2003, published 2007).

Data set [1] in a line: Solubility studies in USPII dissolution apparatus. The data set is classed as physicochemical. The protocol: Solubility experiments were performed in USPII dissolution apparatus operated at 150 r.p.m., at 25° C., in the following media: 250 ml of 0.01N HC1-0.3M KCI (pH 2)
Procedure: 625 mg of pioglitazone hydrochloride was added in 250 ml of media and solubility was determined at given time points.

The nature of data set [2]: Clarity of solution in acidic media on standing. Type of data set: physicochemical.
Where [3] appears, read: 1.5 hrs, 625 mg in 250 ml of 0.01N HCl-0.3M KCl (pH 2), 25° C., 150 r.p.m., average of six unit data, Hydrochloride.
The mark [4] stands for this setting: 5 hrs, 625 mg in 250 ml of 0.01N HCl-0.3M KCl (pH 2), 25° C., 150 r.p.m., average of six unit data, Hydrochloride.
Setting [5] is: 20 hrs, 625 mg in 250 ml of 0.01N HCl-0.3M KCl (pH 2), 25° C., 150 r.p.m., average of six unit data, Hydrochloride.
The mark [6] stands for this setting: 0.01N HCl-0.3M KCl media (pH 2).

As usually defined, the Solubility is the dissolved amount per volume that the medium holds. High values mean much dissolved substance, low ones little dissolved substance. On to Pioglitazone Hydrochloride [Example 4], for which the “Observation of the media (turbidity, precipitation)” value in data set [1] (0.01N HCl-0.3M KCl (pH 2), later time points) was “the media starts becoming turbid and shows drug precipitation on later time points”. Moreover, the values for the Solubility in data set [1] (setting [3]), in data set [1] (setting [4]) and in data set [1] (setting [5]) were 2265 µg/mL, 722 µg/mL and 473 µg/mL, respectively.
As to Pioglitazone Hydrochloride [Example 5], the Solubility entry in data set [1] (setting [6]) is “more than 2.4 mg/ml”; in data set [1] (30 min, 625 mg in 250 ml of 0.01N HCl-0.3M KCl (pH 2), 25° C., 150 r.p.m., average of six unit data), 2719 µg/mL; in data set [1] (setting [3]), 2587 µg/mL; in data set [1] (setting [4]), 2766 µg/mL; in data set [1] (setting [5]), 2747 µg/mL. For the same substance, the “Standing time without precipitation from the solution” value in data set [1] (setting [6]) is “more than 5 hours”.
For “pioglitazone hydrochloride [listing 1 of 2 here]”, in data set [2], the “Standing time over which the solution remains clear” value was ≥ 20 h.
“pioglitazone hydrochloride [listing 2 of 2 here]”: the “Standing time after which the solution becomes turbid and the drug precipitates” value in data set [2] (initially clear solution) was 4 to 5 h.
